Results from paper PMC10757358 (The Journal of steroid biochemistry and molecular biology, 2023).

Key:
CYP11A1 [1] = molecular target: T1, CYP11A1 (Homo sapiens, UniProt P05108)
[2] = tested on: NCI-H295R human adrenocortical cancer cell line; settings: NCI-H295R cells
CYP11B1 [3] = settings: read-out: reported IC50, CYP11B1; in-vitro studies; cited from earlier work
CYP11A1 [4] = molecular target: T1, CYP11A1; assay: biochemical
CYP11B2 [5] = settings: read-out: reported IC50, CYP11B2; in-vitro studies; cited from earlier work
CYP11B1 [6] = molecular target: T2, CYP11B1 (Homo sapiens, UniProt P15538); assay: biochemical
T2 sequence (P15538 25-503): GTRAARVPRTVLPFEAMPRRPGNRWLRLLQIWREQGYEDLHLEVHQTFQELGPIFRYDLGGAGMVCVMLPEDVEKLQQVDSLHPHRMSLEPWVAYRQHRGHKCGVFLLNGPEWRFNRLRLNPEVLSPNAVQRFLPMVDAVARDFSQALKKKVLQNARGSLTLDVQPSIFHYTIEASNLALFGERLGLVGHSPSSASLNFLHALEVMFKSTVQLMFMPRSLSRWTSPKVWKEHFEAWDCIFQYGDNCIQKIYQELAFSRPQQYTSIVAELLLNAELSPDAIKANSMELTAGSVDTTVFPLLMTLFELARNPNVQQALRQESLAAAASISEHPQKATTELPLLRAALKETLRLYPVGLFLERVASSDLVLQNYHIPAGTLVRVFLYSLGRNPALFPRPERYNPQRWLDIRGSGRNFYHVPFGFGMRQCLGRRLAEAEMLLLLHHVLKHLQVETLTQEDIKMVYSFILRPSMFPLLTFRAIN

CYP11B2 [7] = molecular target: T3, CYP11B2 (Homo sapiens, UniProt P19099); assay: biochemical
T3 sequence (P19099 25-503): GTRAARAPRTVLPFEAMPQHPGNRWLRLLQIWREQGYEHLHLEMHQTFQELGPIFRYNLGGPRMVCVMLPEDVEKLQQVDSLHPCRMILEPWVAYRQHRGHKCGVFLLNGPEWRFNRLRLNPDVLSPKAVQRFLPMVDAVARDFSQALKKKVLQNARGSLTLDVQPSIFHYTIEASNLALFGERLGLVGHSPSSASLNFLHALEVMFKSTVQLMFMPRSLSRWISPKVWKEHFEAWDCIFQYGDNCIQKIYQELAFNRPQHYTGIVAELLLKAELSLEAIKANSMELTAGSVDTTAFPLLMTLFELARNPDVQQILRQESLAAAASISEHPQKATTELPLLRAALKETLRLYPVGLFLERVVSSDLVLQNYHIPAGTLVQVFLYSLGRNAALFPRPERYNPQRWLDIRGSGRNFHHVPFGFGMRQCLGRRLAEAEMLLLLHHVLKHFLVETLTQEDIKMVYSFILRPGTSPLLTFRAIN

T1 sequence (P05108 40-521): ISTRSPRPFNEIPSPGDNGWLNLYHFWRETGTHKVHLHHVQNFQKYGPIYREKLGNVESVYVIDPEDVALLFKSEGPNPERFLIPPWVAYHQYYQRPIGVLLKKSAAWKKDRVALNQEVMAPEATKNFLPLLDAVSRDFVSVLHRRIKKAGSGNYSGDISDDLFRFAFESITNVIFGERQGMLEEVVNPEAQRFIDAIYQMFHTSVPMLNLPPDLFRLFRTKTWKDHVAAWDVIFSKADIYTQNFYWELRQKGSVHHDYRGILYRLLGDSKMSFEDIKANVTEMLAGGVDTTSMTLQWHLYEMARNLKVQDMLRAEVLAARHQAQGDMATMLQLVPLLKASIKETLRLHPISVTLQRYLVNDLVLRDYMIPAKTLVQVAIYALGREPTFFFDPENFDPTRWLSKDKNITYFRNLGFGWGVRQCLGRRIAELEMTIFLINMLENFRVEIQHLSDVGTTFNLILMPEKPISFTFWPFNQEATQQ

Row | SMILES | inhibition (CYP11A1 [1]) [%] | aldosterone production, % of baseline ([2]; 0-1000 nM LCI699, 24 h) [%] | androstenedione level ([2]; 0-1000 nM LCI699, 24 h) | corticosterone, % of the baseline ([2]; 0-1000 nM LCI699, 24 h) [%] | cortisol production, % of baseline ([2]; 0-1000 nM LCI699, 24 h) [%] | 11-deoxycortisol level ([2]; higher concentrations of LCI699, changes did not reach statistical significance) | IC50 (CYP11B1 [3]) [nM] | Kd (CYP11A1 [4]) [nM] | IC50 (CYP11B2 [5]) [nM] | Kd (CYP11B1 [6]) [nM] | Kd (CYP11B2 [7]) [nM]
1 | N#Cc1ccc([C@H]2CCc3cncn32)c(F)c1 [LCI699, Osilodrostat] | […] | 2 ± 3 | remained unchanged | 1 ± 2 | 13 ± 4 | appeared to increase | […] | 18800 | […] |  | 
2 | C[C@]12CC[C@H]3[C@@H](CCC4=CC(=O)CC[C@@]43C)[C@@H]1CC[C@@H]2C(=O)CO [DOC, 11-deoxycorticosterone] |  |  |  |  |  |  |  |  |  | 420 | 270
